Source: patent publication US20230024096A1, “BIFUNCTIONAL COMPOUNDS FOR THE TREATMENT OF CANCER” (Hoffmann-La Roche Inc., priority 2019, published 2023)

Molecular target: T1, SMARCA2 (Homo sapiens, UniProt P51531)
T1 construct: endogenous in cells; host or cells: HT1080 (CRISPR HiBiT knock-in clone, generated in house)
Test: SMARCA2 HiBiT degradation assay (cellular)
Format: cell-based
Conditions: table head names A549; for DC50: 6 h incubation, HiBiT-tagged SMARCA2, luminescence read-out, read-out: HiBit A549 SMARCA2 IP (nM) 6 h; for Emax: A549, 6 h incubation, Emax = amount of residual protein remaining in the cell following compound treatment

T1 sequence (P51531 whole entry): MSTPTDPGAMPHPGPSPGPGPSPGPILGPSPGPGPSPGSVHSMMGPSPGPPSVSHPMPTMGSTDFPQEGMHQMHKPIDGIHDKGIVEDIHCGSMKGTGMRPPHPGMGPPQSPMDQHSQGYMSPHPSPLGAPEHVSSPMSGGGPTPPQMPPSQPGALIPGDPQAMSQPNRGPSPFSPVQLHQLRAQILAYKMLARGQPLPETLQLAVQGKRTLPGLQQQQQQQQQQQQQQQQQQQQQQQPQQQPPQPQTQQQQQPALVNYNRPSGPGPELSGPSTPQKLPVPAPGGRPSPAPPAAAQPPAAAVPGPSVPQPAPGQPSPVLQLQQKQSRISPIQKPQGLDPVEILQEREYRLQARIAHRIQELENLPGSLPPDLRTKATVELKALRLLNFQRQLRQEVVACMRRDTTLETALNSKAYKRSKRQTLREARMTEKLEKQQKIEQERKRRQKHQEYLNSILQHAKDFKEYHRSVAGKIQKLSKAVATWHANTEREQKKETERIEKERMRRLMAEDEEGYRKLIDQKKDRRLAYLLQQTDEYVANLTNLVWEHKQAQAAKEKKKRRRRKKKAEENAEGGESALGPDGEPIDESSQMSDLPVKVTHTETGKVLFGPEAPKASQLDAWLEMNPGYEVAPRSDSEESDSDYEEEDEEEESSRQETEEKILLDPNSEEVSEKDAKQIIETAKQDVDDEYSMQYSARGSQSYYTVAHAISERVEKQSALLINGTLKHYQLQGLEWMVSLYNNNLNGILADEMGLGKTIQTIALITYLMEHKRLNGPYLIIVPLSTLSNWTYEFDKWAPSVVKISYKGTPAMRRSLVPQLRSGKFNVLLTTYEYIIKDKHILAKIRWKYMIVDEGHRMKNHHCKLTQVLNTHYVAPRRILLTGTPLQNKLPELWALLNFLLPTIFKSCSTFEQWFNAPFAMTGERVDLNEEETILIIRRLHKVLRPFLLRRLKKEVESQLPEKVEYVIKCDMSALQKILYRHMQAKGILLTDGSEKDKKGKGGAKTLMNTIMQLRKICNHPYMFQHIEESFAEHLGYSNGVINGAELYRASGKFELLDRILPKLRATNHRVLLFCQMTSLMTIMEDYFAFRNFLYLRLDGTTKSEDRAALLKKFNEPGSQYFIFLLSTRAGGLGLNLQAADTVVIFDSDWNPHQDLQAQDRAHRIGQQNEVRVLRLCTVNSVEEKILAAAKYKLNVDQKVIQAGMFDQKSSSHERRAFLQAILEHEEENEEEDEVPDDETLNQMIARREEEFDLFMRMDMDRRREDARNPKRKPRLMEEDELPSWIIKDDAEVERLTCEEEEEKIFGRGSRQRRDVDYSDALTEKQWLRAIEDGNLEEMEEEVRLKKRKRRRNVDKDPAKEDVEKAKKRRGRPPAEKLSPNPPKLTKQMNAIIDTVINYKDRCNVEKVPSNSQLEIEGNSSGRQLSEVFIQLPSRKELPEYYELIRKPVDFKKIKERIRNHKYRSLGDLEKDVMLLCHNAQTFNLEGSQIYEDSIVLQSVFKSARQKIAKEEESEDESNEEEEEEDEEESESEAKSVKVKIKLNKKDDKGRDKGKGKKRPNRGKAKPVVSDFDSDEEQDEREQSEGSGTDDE

| SMILES | DC50 | Emax |
| --- | --- | --- |
| Nc1nnc(-c2ccccc2O)cc1N1CC2CCC(C1)N2c1cccc(OCCN2CCN(C(=O)CNC(=O)C3CCN(c4ccc5c(c4)C(=O)N(C4CCC(=O)NC4=O)C5=O)CC3)CC2)c1 (racemic) [Example 141, rac-N-[2-[4-[2-[3-[3-[3-amino-6-(2-hydroxyphenyl)pyridazin-4-yl]-3,8-diazabicyclo[3.2.1]octan-8-yl]phenoxy]ethyl]piperazin-1-yl]-2-oxo-ethyl]-1-[2-(2,6-dioxo-3-piperidyl)-1,3-dioxo-isoindolin-5-yl]piperidine-4-carboxamide] | 9 nM | 19% |
| Nc1nnc(-c2ccccc2O)cc1N1CC2CCC(C1)N2c1cccc(OCCN2CCN(C(=O)C3CCN(c4ccc5c(c4)C(=O)N(C4CCC(=O)NC4=O)C5=O)CC3)CC2)c1 (racemic) [Example 142, rac-5-[4-[4-[2-[3-[3-[3-amino-6-(2-hydroxyphenyl)pyridazin-4-yl]-3,8-diazabicyclo[3.2.1]octan-8-yl]phenoxy]ethyl]piperazine-1-carbonyl]-1-piperidyl]-2-(2,6-dioxo-3-piperidyl)isoindoline-1,3-dione] | 2 nM | 14% |
| Nc1nnc(-c2ccccc2O)cc1N1CC2CCC(C1)N2c1cccc(OCCN2CCN(CCCC3CCN(c4ccc5c(c4)C(=O)N(C4CCC(=O)NC4=O)C5=O)CC3)CC2)c1 (racemic) [Example 143, rac-5-[4-[3-[4-[2-[3-[3-[3-amino-6-(2-hydroxyphenyl)pyridazin-4-yl]-3,8-diazabicyclo[3.2.1]octan-8-yl]phenoxy]ethyl]piperazin-1-yl]propyl]-1-piperidyl]-2-(2,6-dioxo-3-piperidyl)isoindoline-1,3-dione] | 2 nM | 8% |
| Nc1nnc(-c2ccccc2O)cc1N1CC2CCC(C1)N2c1ccccc1OCCN1CCN(c2ccc3c(c2)C(=O)N(C2CCC(=O)NC2=O)C3=O)CC1 (racemic) [Example 144, rac-5-[4-[2-[2-[3-[3-amino-6-(2-hydroxyphenyl)pyridazin-4-yl]-3,8-diazabicyclo[3.2.1]octan-8-yl]phenoxy]ethyl]piperazin-1-yl]-2-(2,6-dioxo-3-piperidyl)isoindoline-1,3-dione] | 797 nM | 75% |
| Nc1nnc(-c2ccccc2O)cc1N1CC2CCC(C1)N2c1cccc(CN2CCN(C(=O)CN3CCC(c4ccc(OC5CCC(=O)NC5=O)cc4)CC3)CC2)c1 (racemic) [Example 148, rac-3-[4-[1-[2-[4-[[3-[3-[3-Amino-6-(2-hydroxyphenyl)pyridazin-4-yl]-3,8-diazabicyclo[3.2.1]octan-8-yl]phenyl]methyl]piperazin-1-yl]-2-oxo-ethyl]-4-piperidyl]phenoxy]piperidine-2,6-dione] | 25 nM | 33% |
| Nc1nnc(-c2ccccc2O)cc1N1CC2CCC(C1)N2c1cccc(CN2CCN(C(=O)CN3CCC(c4ccc(NC5CCC(=O)NC5=O)cc4)CC3)CC2)c1 (racemic) [Example 149, rac-3-[4-[1-[2-[4-[[3-[3-[3-Amino-6-(2-hydroxyphenyl)pyridazin-4-yl]-3,8-diazabicyclo[3.2.1]octan-8-yl]phenyl]methyl]piperazin-1-yl]-2-oxo-ethyl]-4-piperidyl]anilino]piperidine-2,6-dione] | 18 nM | 40% |
| Nc1nnc(-c2ccccc2O)cc1N1CC(Oc2cccc(N3CCN(C(=O)C4CCN(c5ccc6c(c5)C(=O)N(C5CCC(=O)NC5=O)C6=O)CC4)CC3)c2)C1 (racemic) [Example 152, rac-5-[4-[4-[3-[1-[3-amino-6-(2-hydroxyphenyl)pyridazin-4-yl]azetidin-3-yl]oxyphenyl]piperazine-1-carbonyl]-1-piperidyl]-2-(2,6-dioxo-3-piperidyl)isoindoline-1,3-dione] | 5 nM | 42% |
| Nc1nnc(-c2ccccc2O)cc1N1CC(Oc2cccc(N3CCN(C(=O)CCC4CCN(c5ccc6c(c5)C(=O)N(C5CCC(=O)NC5=O)C6=O)CC4)CC3)c2)C1 (racemic) [Example 153, rac-5-[4-[3-[4-[3-[1-[3-amino-6-(2-hydroxyphenyl)pyridazin-4-yl]azetidin-3-yl]oxyphenyl]piperazin-1-yl]-3-oxo-propyl]-1-piperidyl]-2-(2,6-dioxo-3-piperidyl)isoindoline-1,3-dione] | 19 nM | 21% |
| Nc1nnc(-c2ccccc2O)cc1N1CC(Oc2cccc(CN3CCN(C(=O)CCC4CCN(c5ccc6c(c5)C(=O)N(C5CCC(=O)NC5=O)C6=O)CC4)CC3)c2)C1 (racemic) [Example 154, rac-5-[4-[3-[4-[[3-[1-[3-amino-6-(2-hydroxyphenyl)pyridazin-4-yl]azetidin-3-yl]oxyphenyl]methyl]piperazin-1-yl]-3-oxo-propyl]-1-piperidyl]-2-(2,6-dioxo-3-piperidyl)isoindoline-1,3-dione] | 12 nM | 16% |
| Nc1nnc(-c2ccccc2O)cc1N1CC(Oc2cccc(CN3CCN(C(=O)C4CCN(c5ccc6c(c5)C(=O)N(C5CCC(=O)NC5=O)C6=O)CC4)CC3)c2)C1 (racemic) [Example 155, rac-5-[4-[4-[[3-[1-[3-amino-6-(2-hydroxyphenyl)pyridazin-4-yl]azetidin-3-yl]oxyphenyl]methyl]piperazine-1-carbonyl]-1-piperidyl]-2-(2,6-dioxo-3-piperidyl)isoindoline-1,3-dione] | 5 nM | 26% |
| Nc1nnc(-c2ccccc2O)cc1N1CC(Oc2cccc(CN3CCN(C(=O)CN4CCC(c5ccc(NC6CCC(=O)NC6=O)cc5)CC4)CC3)c2)C1 (racemic) [Example 156, rac-3-[4-[1-[2-[4-[[3-[1-[3-amino-6-(2-hydroxyphenyl)pyridazin-4-yl]azetidin-3-yl]oxyphenyl]methyl]piperazin-1-yl]-2-oxo-ethyl]-4-piperidyl]anilino]piperidine-2,6-dione] | 3 nM | 17% |
| Nc1nnc(-c2ccccc2O)cc1N1CC2CCC(C1)N2c1nccc(OCCN2CCN(CCCOC3CCN(c4ccc5c(c4)C(=O)N(C4CCC(=O)NC4=O)C5=O)CC3)CC2)n1 (racemic) [Example 161, rac-5-[4-[3-[4-[2-[2-[3-[3-Amino-6-(2-hydroxyphenyl)pyridazin-4-yl]-3,8-diazabicyclo[3.2.1]octan-8-yl]pyrimidin-4-yl]oxyethyl]piperazin-1-yl]propoxy]-1-piperidyl]-2-(2,6-dioxo-3-piperidyl)isoindoline-1,3-dione] | 33 nM | 30% |
| CN(C(=O)C1CCN(Cc2cccc(N3C4CCC3CN(c3cc(-c5ccccc5O)nnc3N)C4)c2)CC1)C1CN(c2ccc3c(c2)C(=O)N(C2CCC(=O)NC2=O)C3=O)C1 (racemic) [Example 170, rac-1-[[3-[3-[3-amino-6-(2-hydroxyphenyl)pyridazin-4-yl]-3,8-diazabicyclo[3.2.1]octan-8-yl]phenyl]methyl]-N-[1-[2-(2,6-dioxo-3-piperidyl)-1,3-dioxo-isoindolin-5-yl]azetidin-3-yl]-N-methyl-piperidine-4-carboxamide] | 18 nM | 31% |
| Nc1nnc(-c2ccccc2O)cc1N1CC2CCC(C1)N2c1cccc(CN2CCN(C(=O)C3CN(c4ccc5c(c4)C(=O)N(C4CCC(=O)NC4=O)C5=O)C3)CC2)c1 (racemic) [Example 179, rac-5-[3-[4-[[3-[3-[3-amino-6-(2-hydroxyphenyl)pyridazin-4-yl]-3,8-diazabicyclo[3.2.1]octan-8-yl]phenyl]methyl]piperazine-1-carbonyl]azetidin-1-yl]-2-(2,6-dioxo-3-piperidyl)isoindoline-1,3-dione] | 100 nM | 39% |
| Nc1nnc(-c2ccccc2O)cc1N1CC2CCC(C1)N2c1cc(F)cc(CN2CCN(C(=O)C3CCN(c4ccc5c(c4)C(=O)N(C4CCC(=O)NC4=O)C5=O)CC3)CC2)c1 (racemic) [Example 193, rac-5-[4-[4-[[3-[3-[3-Amino-6-(2-hydroxyphenyl)pyridazin-4-yl]-3,8-diazabicyclo[3.2.1]octan-8-yl]-5-fluoro-phenyl]methyl]piperazine-1-carbonyl]-1-piperidyl]-2-(2,6-dioxo-3-piperidyl)isoindoline-1,3-dione] | 51 nM | 25% |
| Nc1nnc(-c2ccccc2O)cc1N1CC2CCC(C1)N2c1cccc(CN2CCN(C(=O)CN3CCN(c4ccc(OC5CCC(=O)NC5=O)cc4)CC3)CC2)c1 (racemic) [Example 195, rac-3-[4-[4-[2-[4-[[3-[3-[3-Amino-6-(2-hydroxyphenyl)pyridazin-4-yl]-3,8-diazabicyclo[3.2.1]octan-8-yl]phenyl]methyl]piperazin-1-yl]-2-oxo-ethyl]piperazin-1-yl]phenoxy]piperidine-2,6-dione] | 72 nM | 60% |
| CC(Oc1cccc2c1C(=O)N(C1CCC(=O)NC1=O)C2=O)c1cn(C2CN(C(=O)CCCCN3CCN(c4ccc(N5CCC[C@H](Oc6cc(-c7ccccc7O)nnc6N)C5)cc4)CC3)C2)nn1 (mixture of isomers) [Example 199, 2-(2,6-dioxo-3-piperidyl)-4-[1-[1-[1-[5-[4-[4-[rac-(3S)-3-[3-amino-6-(2-hydroxyphenyl)pyridazin-4-yl]oxy-1-piperidyl]phenyl]piperazin-1-yl]pentanoyl]azetidin-3-yl]triazol-4-yl]ethoxy]isoindoline-1,3-dione] | 107 nM | 62% |
| CC(Oc1cccc2c1C(=O)N(C1CCC(=O)NC1=O)C2=O)c1cn(CCCN2CCN(C(=O)CCN3CCN(c4ccc(N5CCC[C@H](Oc6cc(-c7ccccc7O)nnc6N)C5)cc4)CC3)CC2)nn1 (mixture of isomers) [Example 200, 2-(2,6-dioxo-3-piperidyl)-4-[1-[1-[3-[4-[3-[4-[4-[rac-(3S)-3-[3-amino-6-(2-hydroxyphenyl)pyridazin-4-yl]oxy-1-piperidyl]phenyl]piperazin-1-yl]propanoyl]piperazin-1-yl]propyl]triazol-4-yl]ethoxy]isoindoline-1,3-dione] | 104 nM | 45% |
